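These data come from cells grown in 96-well plates and exposed to compound for 48 hours at five concentrations. The concentration for 50% growth inhibition is given as GI50. TGI marks complete inhibition of growth.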 Where only a bound is given, the exact number is not on record here.

Test systems include DU-145 prostate; PC-3 prostate; COLO 205 colon; M14 melanoma; RPMI-8226 leukemia; UACC-62 melanoma; NCI-H460 lung; UO-31 renal; HT29 colon; HOP-92 NSCLC.
Holding throughout (experiment): NCI-60 cell line screen, 48 h

Take `CCC[CH2][Sn]([CH2]CCC)([O]C(=O)c1cccc(F)c1F)[O][Sn]([CH2]CCC)([CH2]CCC)[O]C(=O)c1cccc(F)c1F`: the GI50 is 0.457 µM with DU-145 prostate; 0.59 µM with PC-3 prostate; 0.288 µM with COLO 205 colon; 0.274 µM in the assay on M14 melanoma; 0.0288 µM in the assay with RPMI-8226 leukemia; 0.173 µM with UACC-62 melanoma. Further, the GI50 was 1.3 µM in the assay with NCI-H460 lung, 0.506 µM in the assay on UO-31 renal, 0.812 µM with HT29 colon and 0.13 µM in the assay with HOP-92 NSCLC. Besides, the TGI in the assay with DU-145 prostate was 1.63 µM; in the assay on PC-3 prostate, 1.86 µM; with COLO 205 colon, 0.969 µM; in the assay with M14 melanoma it was 0.891 µM; with UACC-62 melanoma, 0.423 µM; with NCI-H460 lung, 2.62 µM. Besides, the TGI with UO-31 renal was found to be 1.72 µM; with HT29 colon, 2.07 µM; with HOP-92 NSCLC, 0.399 µM.
For `CCOC(=O)c1ccc(C(O)CC(=O)OC(C)(C)C)[nH]1` (centres undefined), the GI50 with DU-145 prostate is 59.7 µM; in the assay on PC-3 prostate, 21.3 µM; in the assay with COLO 205 colon, 41.3 µM; in the assay with M14 melanoma it was 27 µM; with RPMI-8226 leukemia, greater than 100 µM; in the assay on UACC-62 melanoma, 26.5 µM. In addition, the GI50 in the assay with NCI-H460 lung was 35.9 µM; with UO-31 renal, 38.5 µM; with HT29 colon it was 59 µM; with HOP-92 NSCLC it was 17.9 µM. Further, the TGI with DU-145 prostate is greater than 100 µM; with PC-3 prostate, 62 µM; with COLO 205 colon it was greater than 100 µM; in the assay on M14 melanoma, 67.3 µM; in the assay on RPMI-8226 leukemia, greater than 100 µM; in the assay on UACC-62 melanoma, 81.3 µM. Moreover, the TGI in the assay on NCI-H460 lung is greater than 100 µM; with UO-31 renal, greater than 100 µM; in the assay with HT29 colon, greater than 100 µM; in the assay with HOP-92 NSCLC, 55.8 µM.
Take `CN1CCN(Cc2ccc(NC(=O)c3[nH]ncc3Nc3ccnc4ccsc34)cc2)CC1`: the GI50 with DU-145 prostate is 2.17 µM; in the assay with PC-3 prostate it was 3.25 µM; in the assay with COLO 205 colon, 1.42 µM; in the assay with M14 melanoma it was 3.69 µM; in the assay with RPMI-8226 leukemia, 2.95 µM; in the assay with UACC-62 melanoma, 11.2 µM. For the same compound, the GI50 in the assay on NCI-H460 lung is 3.15 µM; in the assay on UO-31 renal it was 1.78 µM; with HT29 colon, 2.04 µM; with HOP-92 NSCLC, 3.89 µM. The TGI in the assay on DU-145 prostate was 11.6 µM; with PC-3 prostate, 20.2 µM; in the assay with COLO 205 colon, 8.32 µM; with M14 melanoma, 16.9 µM; in the assay with RPMI-8226 leukemia, 7.18 µM; in the assay on UACC-62 melanoma, 30.2 µM. Also, the TGI amounted to 12 µM in the assay with NCI-H460 lung, 10.1 µM in the assay with UO-31 renal, 33.8 µM in the assay with HT29 colon and 8.92 µM with HOP-92 NSCLC.
Turning to `C=C1C(=O)O[C@H]2[C@H]1CC/C(COC(=O)N[C@@H](Cc1c[nH]c3ccccc13)C(=O)OC)=C\CC[C@@]1(C)O[C@@H]21`, the GI50 in the assay with DU-145 prostate was 1.08 µM; with PC-3 prostate it was 1.45 µM; with COLO 205 colon it was 1.73 µM; in the assay on M14 melanoma it was 1.59 µM; in the assay on RPMI-8226 leukemia it was 0.527 µM; in the assay with UACC-62 melanoma, 1.38 µM. In addition, the GI50 with NCI-H460 lung was 3.4 µM; in the assay with UO-31 renal, 1.45 µM; in the assay on HT29 colon, 1.44 µM; with HOP-92 NSCLC it was 1.42 µM. In addition, the TGI is 2.44 µM in the assay on DU-145 prostate; 3.41 µM in the assay on PC-3 prostate; 3.4 µM with COLO 205 colon; 3.35 µM in the assay with M14 melanoma; 2.71 µM with RPMI-8226 leukemia; 2.84 µM with UACC-62 melanoma. For the same compound, the TGI with NCI-H460 lung turned out to be 12.6 µM; with UO-31 renal it was 2.76 µM; with HT29 colon, 3.04 µM; in the assay on HOP-92 NSCLC, 2.98 µM.
`COc1ccc2c(c1)C(=O)c1c-2c(N2CCN(C(=O)CN(C)C)CC2)nc2ccccc12`: the GI50 is 14.8 µM in the assay on DU-145 prostate; 14.4 µM in the assay with PC-3 prostate; 13.3 µM with COLO 205 colon; 15.6 µM with M14 melanoma; 10.7 µM in the assay with RPMI-8226 leukemia; 15.3 µM in the assay on UACC-62 melanoma. Moreover, the GI50 is 6.01 µM in the assay on NCI-H460 lung, 10.4 µM in the assay on UO-31 renal, 2.13 µM in the assay on HT29 colon and 5.69 µM with HOP-92 NSCLC. For the same compound, the TGI with DU-145 prostate was determined as 35.2 µM; with PC-3 prostate, 31.5 µM; in the assay with COLO 205 colon, 28.1 µM; in the assay with M14 melanoma it was 31.5 µM; in the assay with RPMI-8226 leukemia, 28.6 µM; in the assay with UACC-62 melanoma, 37.3 µM. For the same compound, the TGI in the assay with NCI-H460 lung came out at 20.6 µM; with UO-31 renal, 26 µM; with HT29 colon, 12.7 µM; in the assay on HOP-92 NSCLC, 24.2 µM.
For `C=C1C(=O)O[C@H]2[C@H]1CC/C(COC(=O)NCCc1c[nH]c3ccccc13)=C\CC[C@@]1(C)O[C@@H]21`, the GI50 was 1.19 µM in the assay on DU-145 prostate; 3.05 µM in the assay with PC-3 prostate; 1.36 µM with COLO 205 colon; 1.44 µM in the assay with M14 melanoma; 0.826 µM with RPMI-8226 leukemia; 1.47 µM in the assay on UACC-62 melanoma. The GI50 in the assay with NCI-H460 lung was 3.82 µM; in the assay on UO-31 renal it was 1.43 µM; with HT29 colon it was 1.55 µM; with HOP-92 NSCLC it was 1.27 µM. Further, the TGI with DU-145 prostate is 2.68 µM; with PC-3 prostate it was 13 µM; in the assay with COLO 205 colon, 3.09 µM; with M14 melanoma, 3.65 µM; in the assay on RPMI-8226 leukemia it was 4.26 µM; in the assay with UACC-62 melanoma it was 3.2 µM. Besides, the TGI in the assay with NCI-H460 lung came to 16.3 µM; with UO-31 renal it was 2.73 µM; in the assay on HT29 colon, 3.78 µM; in the assay on HOP-92 NSCLC, 3.07 µM.
Regarding `Nc1nc(F)nc2c1ncn2C1OC(COP(=O)(O)O)C(O)C1O` (centres undefined), the TGI with DU-145 prostate turned out to be 124 µM; in the assay on PC-3 prostate it was 322 µM; in the assay with COLO 205 colon it was 610 µM; in the assay with M14 melanoma, 66.7 µM; with RPMI-8226 leukemia, 855 µM; with UACC-62 melanoma, 247 µM. The TGI in the assay with NCI-H460 lung is 616 µM; with UO-31 renal it was 76.4 µM; in the assay on HT29 colon it was greater than 1250 µM; in the assay on HOP-92 NSCLC, 71.8 µM.
In the case of `c1cncc(-c2cc(-c3cc(-c4cccnc4)n[nH]3)[nH]n2)c1`, the TGI in the assay on DU-145 prostate, in the assay with PC-3 prostate, in the assay on COLO 205 colon, in the assay on M14 melanoma, with RPMI-8226 leukemia and with UACC-62 melanoma was greater than 100 µM each time. The TGI in the assay on NCI-H460 lung, in the assay on UO-31 renal, in the assay with HT29 colon and in the assay with HOP-92 NSCLC was greater than 100 µM throughout.

The record behind these values is PubChem BioAssay (NCI).
